Test results as given in patent US20170224662A1 (priority 2016, published 2017).
≈ marks a conversion by molar mass, not a printed value.

Legend:
Type in all cases: physicochemical
[1] = 1- and 2-week accelerated stability of CPMM (~0.3 mg/mL) in aqueous pH buffer media, HPLC purity; conditions: for CPMM % Purity: t = 0
Procedure: The aqueous CPMM pH 1-9 samples described above were diluted as necessary to approximately 0.3 mg/mL and placed on accelerated stability at 25° C./60% relative humidity and 40° C./75% relative humidity conditions for two weeks. Samples were pulled at t=0, 1, and 2 weeks from set-up, and analyzed by HPLC. Samples were diluted to approximately 0.3 mg/mL, which well below the HPLC method nominal concentration, due to concerns of precipitation during the two week stability study. The injection volume was increased to compensate for the lower drug concentration in solution. The change in CPMM purity over the study duration is listed in Table 3 and plotted in FIGS. 3-5.
The pH 1 sample was placed on stability at a non-diluted concentration due to an error. This sample was re-diluted at the one-week time point to match the concentration in the pH 2-9 samples and re-placed on stability. The pH 9 sample results were not included in FIGS. 3-5 due to excessive degradation and for easier visual assessment over the more relevant pH 2-8 range.

physchem [2] = conditions: imidazole nitrogen in position 3; solubility analysis (log solubility curve) and titration
From the text: The solubility of compounds as disclosed herein is pH-dependent. The imidazole nitrogen in position 3 of CPMM has a pKa of approximately 2.5, as determined by solubility analysis and titration. For example, CPMM is very water soluble at low pH, but solubility decreases with increasing pH, such that it is lower at pH 3-8.

physchem [3] = conditions: for HPLC [CPMM] Concentration: diluted sample; for Actual [CPMM] Concentration: never saturated, stopped after 100 mg added
Procedure: CPMM solubility was also evaluated in common solvents: water, methanol, ethanol, acetonitrile, and isopropanol. CPMM was weighed into 1.0 mL of each solvent and vortex-mixed. Only the water sample was saturated with CPMM; the other solvents never achieved saturation due to their high CPMM solubility. The screening was stopped after 100 mg of bulk CPMM had been added. Table 2 lists the ABP-700 solubility results in common solvents.

For `COC(=O)C1(OC(=O)c2cncn2[C@H](C)c2ccccc2)CC1` [CPMM, 1-(methoxycarbonyl)cyclopropyl-1-[(1R)-1-phenylethyl]-1H-imidazole-5-carboxylate], the “CPMM % Purity” value ([1]; 50 mM buffer pH 2 (Phosphoric Acid)) was 99.39%, the “CPMM % Purity” value ([1]; 50 mM buffer pH 3 (Phosphoric Acid)) was 99.33% and the “CPMM % Purity” value ([1]; 50 mM buffer pH 4 (Citric Acid)) was 98.59%. The “CPMM % Purity” value ([1]; 50 mM buffer pH 5 (Citric Acid)) was 97.77%, the “CPMM % Purity” value ([1]; 50 mM buffer pH 6 (Citric Acid)) was 97.55% and the “CPMM % Purity” value ([1]; 50 mM buffer pH 7 (Phosphoric Acid)) was 98.16%. For the same compound, the “CPMM % Purity” value ([1]; 50 mM buffer pH 8 (Phosphoric Acid)) was 98.32%, the “CPMM % Purity” value ([1]; 50 mM buffer pH 9 (Boric Acid)) was 94.98% and the “Change in CPMM % Purity” value ([1]; pH 5 (Citric Acid), 25° C./60% RH, t = 1 week) was −0.62%. For the same compound, the “Change in CPMM % Purity” value ([1]; pH 5 (Citric Acid), 25° C./60% RH, t = 2 week) was −1.06%, the “Change in CPMM % Purity” value ([1]; pH 5 (Citric Acid), 40° C./75% RH, t = 1 week) was −2.16% and the “Change in CPMM % Purity” value ([1]; pH 5 (Citric Acid), 40° C./75% RH, t = 2 week) was −3.48%. The “Change in CPMM % Purity” value ([1]; pH 6 (Citric Acid), 25° C./60% RH, t = 1 week) was −0.33%, the “Change in CPMM % Purity” value ([1]; pH 6 (Citric Acid), 25° C./60% RH, t = 2 week) was −0.55% and the “Change in CPMM % Purity” value ([1]; pH 6 (Citric Acid), 40° C./75% RH, t = 1 week) was −2.72%. For the same compound, the “Change in CPMM % Purity” value ([1]; pH 6 (Citric Acid), 40° C./75% RH, t = 2 week) was −3.49%, the “Change in CPMM % Purity” value ([1]; pH 7 (Phosphoric Acid), 25° C./60% RH, t = 1 week) was −0.39% and the “Change in CPMM % Purity” value ([1]; pH 7 (Phosphoric Acid), 25° C./60% RH, t = 2 week) was −0.96%. The pKa (physchem [2]) was ~2.5, the “HPLC [CPMM] Concentration” value (physchem [3]; Acetonitrile, dilution factor 166.67) was 474.2 µg/mL and the “Actual [CPMM] Concentration” value (physchem [3]; Acetonitrile) was 79034.9 µg/mL. For the same compound, the “HPLC [CPMM] Concentration” value (physchem [3]; Ethanol, dilution factor 166.67) was 534.3 µg/mL, the “Actual [CPMM] Concentration” value (physchem [3]; Ethanol) was 89051.8 µg/mL and the “HPLC [CPMM] Concentration” value (physchem [3]; Isopropanol, dilution factor 166.67) was 514.5 µg/mL. The “Actual [CPMM] Concentration” value (physchem [3]; Isopropanol) was 85751.7 µg/mL, the “HPLC [CPMM] Concentration” value (physchem [3]; Methanol, dilution factor 166.67) was 503.2 µg/mL and the “Actual [CPMM] Concentration” value (physchem [3]; Methanol) was 83868.3 µg/mL. The “HPLC [CPMM] Concentration” value (physchem [3]; Water, dilution factor 6.67) was 449.2 µg/mL and the solubility thermodynamic (physchem [3]; thermodynamic from solid, Water, saturated, read-out: Actual [CPMM] Concentration) was 3000 µg/mL (≈ 9.53 mM).
